In patent US8178506B2, “Oligomeric compounds and compositions for use in modulation of small non-coding RNAs” (Regulus Therapeutics Inc., priority 2003, dated 2012):
In the oligonucleotide strings, read from the 5' end, every base follows the letter of its sugar. An asterisk marks phosphorothioate; unmarked linkages are phosphodiester. Other units and linkages are bracketed, terminal groups are in braces. A string of capitals states the bases alone. e = 2'-O-(2-methoxyethyl) (MOE); [5mC] = 5-methylcytosine; d = 2'-deoxy (DNA)

What was measured:
[1] = test system: PEPCK-c; assay: PEPCK-c mRNA expression in HepG2 cells; assay type: cell-based, human; conditions: for decrease in PEPCK-c mRNA: HepG2, basal (no insulin)
Description: (§1) Approximately 28 hours after transfection, the cells are subjected to serum starvation for a period of 12 to 16 hours, using serum-free growth medium. Following serum starvation, cells are treated with 1 nM insulin (insulin-treated) or are left untreated (basal conditions) for approximately four hours. At the same time, untreated control cells in both plates are treated with 100 nM insulin to determine the maximal insulin response. Following insulin treatment (forty-eight hours after transfection), total RNA is harvested from all samples, and the amount of total RNA from each sample is determined using a Ribogreen assay (Invitrogen Corporation, Carlsbad, Calif.). Real-time PCR is performed on the total RNA samples using primer/probe sets for three insulin responsive genes: insulin-like growth factor binding protein-1 (IGFBP-1), cytosolic PEPCK (PEPCK-C), and follistatin. Gene expression levels obtained by real-time PCR are normalized for total RNA content in the samples.
(§2) Oligomeric compounds of the present invention were tested for their effects on insulin signaling in HepG2 cells. HepG2 cells were plated at 7500 cells/well in collagen coated 96-well plates. The following day, cells were transfected with oligomeric compounds targeting miRNAs using 100 nM oligomeric compound in LIPOFECTIN™ (Invitrogen Corporation, Carlsbad, Calif.) in two 96-well plates. The oligomeric compounds were tested in triplicate on each 96-well plate, except for positive and negative controls, which were measured up to six times per plate. At the end of transfection, the transfection medium was replaced by regular growth medium. Twenty-eight hours post-transfection, the cells were subjected to overnight (sixteen to eighteen hours) serum starvation using serum free growth medium. Forty-four hours post-transfection, the cells in the transfected wells were treated with either no insulin (“basal” Experiment 1, for identification of insulin-mimetic compounds) or with 1 nM insulin (“insulin treated” Experiment 2, for identification of insulin sensitizers) for four hours. At the same time, in both plates, cells in some of the un-transfected control wells are treated with 100 nM insulin to determine maximal insulin response. At the end of the insulin or no-insulin treatment (forty-eight hours post-transfection), total RNA is isolated from both the basal and insulin treated (1 nM) 96-well plates, and the amount of total RNA from each sample is determined using a Ribogreen assay (Molecular Probes, Eugene, Oreg.). Real-time PCR is performed on all the total RNA samples using primer/probe sets for three insulin responsive genes: PEPCK-c, IGFBP-1 and follistatin. Expression levels for each gene are normalized to total RNA, and values+standard deviation are expressed relative to the transfectant only untreated control (UTC) and negative control compounds.
(§3) Protocols for treatment of HepG2 cells and transfection of oligomeric compounds are as described in Example 18. Also as described in Example 18, forty-four hours post-transfection, the cells in the transfected wells were treated with either no insulin (“basal” Experiment 3 (below), for identification of insulin-mimetic compounds) or with 1 nM insulin (“insulin treated” Experiment 4 (below), for identification of insulin sensitizers) for four hours. At the same time, in both plates, cells in some of the un-transfected control wells are treated with 100 nM insulin to determine maximal insulin response. At the end of the insulin or no-insulin treatment (forty-eight hours post-transfection), total RNA is isolated from both the basal and insulin treated (1 nM) 96-well plates, and the amount of total RNA from each sample is determined using a Ribogreen assay (Molecular Probes, Eugene, Oreg.).

[2] = test system: IGFBP-1; assay: IGFBP-1 mRNA expression in HepG2 cells; assay type: cell-based, human
Description: as §1, §2, §3

[3] = test system: follistatin; assay: Follistatin mRNA expression in HepG2 cells; assay type: cell-based, human
Description: as §1, §2, §3

[4] = test system: BJ, B16-F10, T47D, T47Dp53 and HeLa cells; assay: Cell cycle assay (propidium iodide flow cytometry), cell line panel; assay type: cell-based; conditions: 150 nM, 72 hours (Table 29)
[5] = Experiment 2, insulin treated: HepG2 cells transfected with oligomeric compound, 1 nM insulin for four hours, UTC + 1 nM insulin = 100
[6] = Experiment 3, basal (no insulin), HepG2 cells, 48 hours post-transfection
[7] = Experiment 4, insulin-sensitization: HepG2 cells treated with 1 nM insulin for four hours, 48 h post-transfection, mRNA by real-time PCR
[8] = HepG2 cells, Experiment 1, basal (no insulin), four hours, UTC = 100

Substance	PEPCK-c (% UTC) [1, 6]	PEPCK-c (% UTC) [1, 7]	IGFBP-1 (% UTC) [2, 6]	IGFBP-1 (% UTC) [2, 7]	Follistatin (% UTC) [3, 6]	Follistatin (% UTC) [3, 7]	decrease in PEPCK-c mRNA ([1]; 100 nM)	also measured
328774 (antisense eG*e[5mC]*eA*e[5mC]*e[5mC]*d[5mC]*dG*d[5mC]*d[5mC]*dT*d[5mC]*dA*d[5mC]*dA*d[5mC]*eA*e[5mC]*eG*eT*eG) [compound 328774]	–	–	–	–	–	–	–	PEPCKc mRNA expression [1, 5]: 77; IGFBP1 mRNA expression [2, 5]: 100; Follistatin mRNA expression [3, 5]: 68
341813 (antisense AGACACGTGCACTGTAGA; all 2'-MOE, all phosphorothioate, methylation of C not given here) [compound 341813]	121 % UTC	88 % UTC	137 % UTC	117 % UTC	100 % UTC	102 % UTC	–	–
ISIS 341804: SEQ ID NO: 761, targeting mir-94/mir-106b (antisense ATCTGCACTGTCAGCACTTT; all 2'-MOE, all phosphorothioate, methylation of C not given here)	–	–	–	–	–	–	56%	–
GCTACCTGCACTGTAAGCACTTTT (chemistry not given here) [ISIS 327911, uniform 2′-MOE PS; targets mir-106]	–	–	–	–	–	–	48%	percentage of cells in the G2/M phase [4]: increased percentage of cells in the G2/M phase
340362 (antisense GACTGTTGAATCTCATGGCA; 5-10-5 gapmer, wing sugar and linkages not given here, further chemistry not given here) [compound 340362]	168 % UTC	104 % UTC	157 % UTC	129 % UTC	123 % UTC	119 % UTC	–	–
341808 (antisense GAACUGCCUUUCUCUCCA; all 2'-MOE, all phosphorothioate, methylation of C and T or U not given here) [compound 341808]	–	–	–	–	–	–	–	PEPCKc mRNA [1, 8]: 64; IGFBP1 mRNA [2, 8]: 113; Follistatin mRNA [3, 8]: 96
ISIS 341805: SEQ ID NO: 762, targeting mir-184 (antisense ACCCTTATCAGTTCTCCGTCCA; all 2'-MOE, all phosphorothioate, methylation of C not given here)	–	–	–	–	–	–	60%	–
186515 (antisense eA*eG*eG*eT*eA*dG*d[5mC]*dT*dT*dT*dG*dA*dT*dT*dA*eT*eG*eT*eA*eA) [compound 186515]	70 % UTC	40 % UTC	193 % UTC	105 % UTC	67 % UTC	39 % UTC	–	–
AGAAGGTGGGGAGCAGCGTCA (anti-miR; chemistry not fully specified) [ISIS 328115, uniform 2′-MOE PS; targets hypothetical miRNA-142]	–	–	–	–	–	–	–	reduction of PEPCK-c mRNA expression ([1]; HepG2, 1 nM insulin, 100 nM): 41%
